We go through 34 compounds from PubChem BioAssay (NCI).

What all share (experiment): inhibition of tumour cell growth, NCI panel, 48 h
In test [1] the test system is HCT-116 colon.
In test [2] the test system is MDA-MB-231 breast.
Test [3] concerns A498 renal.
In test [4] the test system is UACC-257 melanoma.
Test [5] has as its system COLO 205 colon.
In test [6] the test system is NCI-H460 lung.
Test [7] concerns SF-539 CNS.
Test [8] relates to SN12C renal.
Test [9] deals with CAKI-1 renal.

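Values below derive from 48-hour exposures of cells grown in 96-well plates, with endpoints linearly interpolated between the two concentrations bracketing the appropriate inhibition level. GI50 marks 50% less growth. TGI marks complete inhibition of growth.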

In the case of `Cc1cc2ccccc2c[n+]1CC(O)C[n+]1cc2ccccc2cc1C`, the TGI in test [1], in [2], in [3], in test [4], in [5] and in test [6] was above 100 µM each time. The TGI in test [7], in test [8] and in [9] was above 100 µM in each case.
Turning to `O=C(c1ccc2ccccc2c1)C1S(=O)(=O)OCCOS1(=O)=O`, the TGI in [1], in test [4], in [5], in test [6], in test [8] and in test [9] was above 100 µM throughout.
With `Cc1cc(C)c(S(=O)(=O)N(CCCCN)OCCCN)c(C)c1`, the TGI in test [1] worked out at 30.9 µM; in test [4], 30.2 µM; in test [5], 22.7 µM; in [6], 33.4 µM; in [7] it was 41.6 µM; in [8], 34.4 µM. This compound showed a TGI in [9] of 31.3 µM.
Take `C/C(=C/CO[Si](C)(C)C(C)(C)C)C(=O)N(C)c1ccccc1I`: the TGI in test [1] was 25.8 µM; in [2], 28.3 µM; in test [3], 31 µM; in test [4] it was 26.4 µM; in test [5], 33.8 µM; in [6], 30 µM. Moreover, the TGI worked out at 32.3 µM in test [7], 31.1 µM in [8] and 29.9 µM in [9].
`COC(=O)C(/C(=N/NC(=O)c1ccncc1)C(=O)Nc1ccccc1OC)c1nc2ccc(Cl)cc2[nH]c1=O` (configuration not stated): the TGI in [1], in [2], in test [3], in test [4], in test [6] and in test [7] was above 100 µM throughout. Further, the TGI in test [8] and in test [9] was above 100 µM in each case.
For the compound `O=C(N/N=C\c1cccc2ccccc12)Nc1ccc([N+](=O)[O-])cc1`, the TGI is above 53.7 µM in test [1]; above 100 µM in test [2]; above 100 µM in test [3]; above 100 µM in [4]; above 60.7 µM in [5]; above 76.6 µM in test [6]. Further, the TGI in test [7] was above 100 µM; in [8] it was above 73 µM; in test [9] it was above 100 µM.
Consider `O=[N+]([O-])c1cccc([N+](=O)[O-])c1S(=O)(=O)c1ccccc1`, for which the TGI in test [1] worked out at 4.04 µM; in test [2] it was 37.3 µM; in test [3], 36.1 µM; in [4], 28.8 µM; in test [5], 19.4 µM; in [6], 46.7 µM. Also, the TGI in test [7] was found to be 30.2 µM; in test [8] it was 12.3 µM; in test [9], 3.76 µM.
Take `Cc1cc2ccccc2n1CC(=O)NCC(C)C`: the TGI in [1], in [2], in [4], in test [5], in test [6] and in test [7] was above 100 µM throughout. The TGI in test [8] and in test [9] was above 100 µM in each case.
In the case of `N#CCCC1C(C#N)C2CC1C1C3C=CC(C3)C21` (configuration not stated), the TGI in [1], in test [2], in test [4], in [5] and in [9] was above 100 µM throughout.
Turning to `CC(=O)NC1C(CO)O[C@@H]2OC(C)(C)O[C@H]12` (some centres not stated), the TGI in test [1], in test [2], in test [3], in [4], in test [6] and in test [7] was above 100 µM in each case. In addition, the TGI in [8] and in test [9] was above 100 µM in each case.
On to `O=C(CC(O)(C(F)(F)F)C(F)(F)F)C(CCCl)C(O)(C(F)(F)F)C(F)(F)F` (configuration not stated), for which the TGI was above 100 µM in test [1]; above 100 µM in [2]; 64.8 µM in test [3]; 91.2 µM in test [4]; 26.8 µM in test [5]; 88.6 µM in [6]. Besides, the TGI is above 100 µM in test [7], 67 µM in [8] and 77.1 µM in test [9].
As to `c1ccc(CCN2CCCCCC2)nc1`, the TGI in [1], in test [2], in [3], in test [5], in test [6] and in [8] was above 100 µM throughout. In test [9], the TGI is above 100 µM.
For the compound `O=C1NC(=S)N/C1=C/c1ccccc1O`, the TGI in test [1], in test [2], in test [4], in test [5], in test [7] and in test [8] was above 100 µM throughout. For the same compound, in test [9], the TGI was above 100 µM.
As to `CN(CCc1ccc(Cl)c(Cl)c1)[C@H]1CCCC[C@H]1N1CCCC1`, the TGI in test [1], in test [2], in test [3], in test [4], in test [5] and in test [8] was above 100 µM throughout. Further, the TGI in test [9] was above 100 µM.
With `Nc1nc(Cl)cc(N=Nc2ccccc2)n1`, the TGI is 32.2 µM in test [1]; above 100 µM in test [2]; above 100 µM in test [3]; above 100 µM in [4]; above 100 µM in test [5]; above 100 µM in [7]. Further, the TGI in [8] and in test [9] was above 100 µM throughout.
Regarding `Clc1nc(-[n+]2ccc(-c3ccncc3)cc2)nc(Nc2ccccc2)c1Cl`, the TGI in [1], in test [2], in [3], in [4], in [5] and in test [6] was above 100 µM each time. For the same compound, the TGI in test [7] and in test [8] was above 100 µM each time.
As to `O=C(Nn1c(-c2ccccc2)nc2ccccc2c1=O)c1ccccn1`, the TGI in [1], in [2], in [3], in test [4], in [5] and in [6] was above 100 µM throughout. The TGI in test [7] and in test [8] was above 100 µM each time.
Regarding `COc1ccc(C2OC(=O)c3c2ccc2ccccc32)c(C)c1` (configuration not stated), the TGI in test [1] is above 100 µM; in test [2] it was above 100 µM; in test [3], 21.2 µM; in [4], 80.5 µM; in test [5] it was 21.9 µM; in [6], above 100 µM. The same compound gave a TGI in [8] of 88.2 µM.
For the compound `Cc1cc(Cc2c(F)c(F)c(Cc3cc(C)no3)c(F)c2F)on1`, the TGI in test [1], in test [2], in test [3], in [4], in test [5] and in [7] was above 100 µM in each case. In addition, the TGI was above 100 µM in [8] and 24.6 µM in test [9].
As to `COC(=O)[C@H](C)N1C(=O)N[C@@H](C(C)C)C1=O`, the TGI in test [1], in test [2], in [4], in test [5], in test [6] and in test [7] was above 100 µM in each case. The TGI in test [8] and in test [9] was above 100 µM each time.
For the compound `COc1cc2cc(C(=O)N3CC(CCl)c4c3cc(N)c3ccccc43)[nH]c2cc1OCCN(C)C` (configuration not stated), the TGI in test [1] is 0.623 µM; in test [2], 0.0173 µM; in [3], below 0.005 µM; in test [4] it was 16.8 µM; in [5], 0.00971 µM; in test [6], 8.68 µM. For the same compound, the TGI in test [8] was 0.5 µM; in [9], 0.094 µM.
`CC1(C)O[C@@H](CO)[C@H]([C@@]23OC[C@H]4OC(C)(C)OC4[C@@H]2OC(C)(C)O3)O1` (some centres not stated): the TGI in test [1], in test [2], in test [5], in [6] and in [8] was above 100 µM each time.
In the case of `CN(C(=O)C1(C(=O)C=[N+]=[N-])CC1)c1ccccc1`, the TGI in test [1], in test [2], in [4], in test [5], in [6] and in test [7] was above 100 µM in each case. For the same compound, the TGI in test [8] was above 100 µM.
On to `COP(=O)(OC)C(N)CCSC` (configuration not stated), for which the TGI in [1], in test [4], in [5], in test [6], in test [8] and in [9] was above 100 µM throughout.
Take `COC(=O)c1ccc(-c2nc(C#N)c(N)o2)cc1`: the TGI in test [1] is above 100 µM; in [2], 85.8 µM; in [4], above 100 µM; in test [5], above 100 µM; in test [6], above 100 µM; in [7] it was above 100 µM. Besides, the TGI in test [8] and in test [9] was above 100 µM each time.
Take `CC(C)(CO)CNc1nc(N)nc(Cl)c1N`: the TGI in test [1], in test [2], in test [4], in test [5], in test [6] and in test [7] was above 100 µM each time. Further, the TGI in [8] and in test [9] was above 100 µM in each case.
`O=C(c1ccccc1)c1c(C(F)(F)F)n([O-])c2ccccc2[n+]1=O`: the TGI is above 100 µM in test [1]; 4.72 µM in test [3]; 3.5 µM in test [4]; 5.72 µM in test [6]; 5.77 µM in [7]; 1.94 µM in test [9].
With `N#Cc1c(NC(=O)c2ccccc2)sc2c1CCC(=O)C2`, the GI50 in test [2] is 1990 nM; in [3], 8.83 µM; in [4], 1590 nM; in [5], 1930 nM; in test [6] it was 2220 nM; in [7], 780 nM. Besides, the GI50 is 1160 nM in [8] and 380 nM in test [9]. The TGI in [2] was 6.28 µM; in test [3], 41.2 µM; in [4] it was 5.49 µM; in [5] it was 4.46 µM; in test [6], above 100 µM; in [7] it was 2.59 µM. The TGI in test [8] is 7.51 µM; in test [9], 1.86 µM.
Take `Cc1c2c3cc(O)ccc3nc-2n(C)c2ccccc12`: the TGI in test [1] came out at 10.1 µM; in test [4], 8.05 µM; in [6], 5.11 µM; in test [7], 4.98 µM; in [8], 4.38 µM.
As for `CCOC(=O)c1ccc(C(=O)C(C(C)=O)C(=O)OC(C)(C)C)n1C` (configuration not stated), the TGI in [1], in test [2], in test [3], in test [4], in test [5] and in test [6] was above 100 µM in each case. The TGI in test [8] and in [9] was above 100 µM throughout.
Take `COC(=O)c1sc(=S)sc1SCc1ccccc1CSc1sc(=S)sc1C(=O)OC`: the TGI in test [1], in test [2], in test [3], in test [4], in [5] and in test [6] was above 100 µM in each case. For the same compound, the TGI in test [8] and in test [9] was above 100 µM in each case.
On to `COc1ccc(C2(c3ccc(OC)cc3)OC(=O)c3cccc4cccc2c34)cc1`, for which the TGI in [1] was above 100 µM; in test [2] it was above 100 µM; in test [3], above 100 µM; in [4], above 100 µM; in test [6], above 100 µM; in test [7], 9.63 µM. Moreover, the TGI was above 100 µM in test [8] and 9.87 µM in [9].
For `CN=C(Nn1cnnc1)OC`, the TGI in [1], in test [2], in test [3], in [4], in test [5] and in test [6] was above 100 µM in each case. In test [9], this compound gave a TGI above 100 µM.
In the case of `CC1(C)COC(c2cccc(C3=NC(C)(C)CO3)c2Br)=N1`, the TGI in test [1], in test [2], in [4], in test [5], in [6] and in [7] was above 100 µM throughout. The same compound gave a TGI in [9] above 100 µM.
